Entries after “also recorded” stand apart in the source; their conditions may differ. Where two headings read alike, the source gives them in different places. Where a SMILES comes first, the peptide text is derived from it. Bridges are numbered along the chain shown (N, C = ends).
Columns and labels:
[1] = tested on: human kisspeptin receptor (HsKiss1R); experiment: Intracellular Ca2+ mobilization (Fura-2/AM) in HsKiss1R-expressing HEK293 cells; assay type: cell-based; conditions: 1.0 μM peptide, HEK293, Fura-2/AM
Experimental: (§1) The fluorescent Ca^2+ indicator Fura-2/AM was used to detect intracellular calcium flux ([Li et al., 2010]). Briefly, the HEK293 cells expressing the AjKissR1, AjKissR2 or vertebrate kisspeptin receptor were washed twice with PBS and suspended at 5 × 10^6 cells/mL in Hanks’ balanced salt solution. The cells were then loaded with 3.0 μM Fura-2/AM for 30 min and washed twice in Hanks’ solution. They were then stimulated with the indicated concentrations of different predicted A. japonicus kisspeptins or vertebrate kisspeptins. Finally, intracellular calcium flux was measured for 60 s, by determining the ratio of excitation wavelengths at 340 and 380 nm using a fluorescence spectrometer (Infinite 200 PRO, Tecan, Männedorf, Switzerland). All of the experiments for measuring Ca^2+ mobilization were repeated independently at least three times.

[2] = tested on: zebrafish kisspeptin receptor DrKiss1Ra; experiment: Intracellular Ca2+ mobilization (Fura-2/AM) in DrKiss1Ra-expressing HEK293 cells; assay type: cell-based; conditions: 1.0 μM peptide, HEK293, Fura-2/AM
Experimental: as §1

AjKissR2-EGFP = experiment: Receptor internalization (translocation) by confocal microscopy, AjKissR2-EGFP; assay type: cell-based, Apostichopus japonicus; conditions: 1.0 μM ligand, 60 min
Experimental: For receptor-surface expression analysis, HEK293 cells expressing AjKissR1/2-EGFP were seeded onto glass coverslips in 12-well plates, coated with 0.1 mg/mL poly-L-lysine, and allowed to attach overnight under normal growth conditions ([Li et al., 2010]). The cells were washed three times with PBS and further stained with the membrane probe DiI (Beyotime) at 37°C for 5–10 min, fixed with 4% paraformaldehyde for 10 min, and then incubated with DAPI (Beyotime) for 5–10 min. For the translocation assays, the receptor-expressing cells were treated with 1.0 μM of various stimuli for 60 min, washed three times with PBS and then fixed with 4% paraformaldehyde in PBS for 10 min at room temperature. Finally, the cells were mounted in mounting reagent (DTT/PBS/glycerol, 1:8:2) and visualized by fluorescence microscopy on a Zeiss laser scanning confocal microscope, which was attached to a Zeiss Axiovert 200 microscope and linked to an LSM5 computer system.

AjKissR2 [3] = molecular target: T1, AjKissR2 (Apostichopus japonicus, UniProt A0A5B7LIE4); experiment: Ligand competition binding assay (FITC-AjKiss1a, FACS), HEK293/AjKissR2; conditions: 1.0 μM FITC-AjKiss1a, read-out: IC50 (competitive displacement of FITC-AjKiss1a)
T1 sequence (A0A5B7LIE4 1-327): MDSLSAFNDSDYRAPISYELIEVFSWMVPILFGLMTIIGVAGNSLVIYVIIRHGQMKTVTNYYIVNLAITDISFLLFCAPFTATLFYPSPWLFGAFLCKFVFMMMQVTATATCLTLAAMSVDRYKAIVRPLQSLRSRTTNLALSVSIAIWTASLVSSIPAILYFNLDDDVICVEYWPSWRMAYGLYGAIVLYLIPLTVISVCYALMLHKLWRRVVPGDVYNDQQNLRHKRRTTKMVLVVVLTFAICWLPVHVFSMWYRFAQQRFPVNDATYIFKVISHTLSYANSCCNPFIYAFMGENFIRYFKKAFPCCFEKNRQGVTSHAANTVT
Experimental: (§2) A fluorescence-activated cell sorter (FACS) was used to detect the binding ability of kisspeptins with AjKissR1 or AjKissR2. HEK293 cells expressing FLAG–AjKissR1 or FLAG–AjKissR2 were washed with PBS that contained 0.2% bovine serum albumin (FACS buffer). We designed and synthesized an N-terminal FITC-labeled AjKiss1a peptide (see 'Key resources table'). Different kisspeptins were diluted in the FACS buffer to different concentrations, then added to cells that were incubated on ice for 60–90 min. Cells were washed thrice with the FACS buffer and re-suspended in the FACS buffer with 1% paraformaldehyde for 15 min. The binding activity of the indicated kisspeptin peptides with AjKissR1 or AjKissR2 was determined by measuring the fluorescence of FITC and was presented as a percentage of total binding.

AjKissR1 [4] = molecular target: T2, AjKissR1 (Apostichopus japonicus, UniProt A0A5B7LK60); experiment: cell-based; assay type: cell-based
T2 sequence (A0A5B7LK60 1-378): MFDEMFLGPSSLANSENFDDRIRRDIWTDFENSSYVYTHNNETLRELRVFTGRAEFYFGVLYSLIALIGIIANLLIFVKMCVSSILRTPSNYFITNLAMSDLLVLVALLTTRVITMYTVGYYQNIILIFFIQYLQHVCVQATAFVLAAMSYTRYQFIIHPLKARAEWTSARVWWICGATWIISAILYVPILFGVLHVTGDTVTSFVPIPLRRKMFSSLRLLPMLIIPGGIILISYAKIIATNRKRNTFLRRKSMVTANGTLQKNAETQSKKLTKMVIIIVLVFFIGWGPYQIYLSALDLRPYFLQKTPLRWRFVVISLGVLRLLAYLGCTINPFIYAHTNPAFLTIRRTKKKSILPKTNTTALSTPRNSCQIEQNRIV
Experimental: as §1

AjKissR2 [5] = molecular target: T1, AjKissR2; experiment: cell-based; assay type: cell-based; conditions: for AUC: Ca2+ trace area under curve, HEK293/AjKissR2
Experimental: as §1

AjKissR1 [6] = molecular target: T2, AjKissR1; experiment: Ligand competition binding assay (FITC-AjKiss1a, FACS), HEK293/AjKissR1; conditions: 1.0 μM FITC-AjKiss1a, read-out: IC50 (competitive displacement of FITC-AjKiss1a)
Experimental: as §2

[7] = tested on: zebrafish kisspeptin receptor DrKiss1Rb; experiment: Intracellular Ca2+ mobilization (Fura-2/AM) in DrKiss1Rb-expressing HEK293 cells; assay type: cell-based; conditions: 1.0 μM peptide, HEK293, Fura-2/AM
Experimental: as §1

AjKissR2 [8] = molecular target: T1, AjKissR2; assay type: cell-based; conditions: Ca2+ trace (Fura-2/AM) area under curve, AjKiss1a at Log[M] -10 (100 pM), HEK293/AjKissR2, 68 s trace
[9] = fit of AUC vs Log[AjKiss1a]M, source data Figure 3B1
[10] = log(agonist) vs. response (three parameters) fit of AUC, AjKiss1a on AjKissR2, 5 points

Structure (SMILES): CC(C)C[C@H](NC(=O)[C@H](CO)NC(=O)CNC(=O)[C@H](C)N)C(=O)N[C@@H](CC(=O)O)C(=O)N[C@H]1CSSC[C@@H](C(=O)N[C@@H](CCC(=O)O)C(=O)N[C@@H](CC(=O)O)C(=O)N[C@H](C(=O)N[C@@H](CCC(=O)O)C(=O)N[C@@H](CCCNC(=N)N)C(=O)N[C@@H](CCCNC(=N)N)C(=O)NCC(=O)N[C@@H](CCCNC(=N)N)C(=O)N[C@@H](CCC(N)=O)C(=O)N2CCC[C@H]2C(=O)N[C@@H](CC(N)=O)C(=O)N[C@@H](CCCNC(=N)N)C(=O)N[C@@H](CC(N)=O)C(=O)N[C@@H](C)C(=O)N[C@@H](Cc2c[nH]cn2)C(=O)N[C@@H](Cc2ccc(O)cc2)C(=O)N[C@@H](CCCNC(=N)N)C(=O)N[C@H](C(=O)N[C@@H](CC(C)C)C(=O)N2CCC[C@H]2C(=O)N[C@@H](Cc2ccccc2)C(N)=O)[C@@H](C)O)C(C)C)NC(=O)[C@H](CO)NC(=O)[C@H](C)NC(=O)[C@H](CCC(=O)O)NC(=O)[C@H](CC(C)C)NC1=O [AjKiss1a] (H-AGSLDCLEASCEDVERRGRQPNRNAHYRTLPF-NH2; disulfide 6-11)
- Activation of HsKiss1R, Ca2+ mobilization (in words) [1]: could activate; also recorded: could potentiate
- Activation of DrKiss1Ra, Ca2+ mobilization (in words) [2]: could activate; also recorded: could potentiate
- Internalization of AjKissR2-EGFP from the plasma membrane to the cytoplasm (in words) (AjKissR2-EGFP): significant internalization
- IC50 (AjKissR2 [3]): 95.2 nM
- EC50 (AjKissR1 [4]): 80.8 nM
- AUC (Ca2+ mobilization) (AjKissR1 [4]; Log[AjKiss1a]M -6): 18.82
- AUC (Ca2+ mobilization) (AjKissR1 [4]; Log[AjKiss1a]M -7): 12.93
- AUC (Ca2+ mobilization) (AjKissR1 [4]; Log[AjKiss1a]M -8): 8.793
- AUC (Ca2+ mobilization) (AjKissR1 [4]; Log[AjKiss1a]M -9): 6.715
- AUC (Ca2+ mobilization) (AjKissR1 [4]; Log[AjKiss1a]M -10): 4.474
- Bottom (best-fit value) (AjKissR1 [4]; [9]): 5.962
- LogEC50 (best-fit value) (AjKissR1 [4]; [9]): -7.093
- Span (best-fit value) (AjKissR1 [4]; [9]): 13.69
- Top (best-fit value) (AjKissR1 [4]; [9]): 19.65
- EC50 (AjKissR2 [5]): 1.98 nM
- AUC (AjKissR2 [5]; AjKiss1a at Log[M] -6 (1 μM)): 24.14
- AUC (AjKissR2 [5]; AjKiss1a at Log[M] -7 (100 nM)): 24.83
- AUC (AjKissR2 [5]; AjKiss1a at Log[M] -8 (10 nM)): 24.2
- AUC (AjKissR2 [5]; AjKiss1a at Log[M] -9 (1 nM)): 11.14
- Bottom (best-fit value) (AjKissR2 [5]; [10]): 6.057
- Span (best-fit value) (AjKissR2 [5]; [10]): 19.28
- Top (best-fit value) (AjKissR2 [5]; [10]): 25.34
- LogEC50 (best-fit value) (AjKissR2 [5]; log(agonist) vs. response (three parameters) fit of AUC, Log[AjKiss1a]M, AjKissR2, 5 points): -8.703
- IC50 (AjKissR1 [6]): 568 nM
- Activation of DrKiss1Rb, Ca2+ mobilization (in words) [7]: could activate; also recorded: could potentiate
- AUC (AjKissR2 [8]): 7.592

From paper PMC7282810, “Existence and functions of a kisspeptin neuropeptide signaling system in a non-chordate deuterostome species” (eLife, 2020)
